In one series the test system is NMDAR-mediated currents. Conditions: cultured hippocampal neurons; cited from earlier work.
Series [1] deals with NMDAR-EPSCs (GluN1/GluN2B receptors). Put plainly: Evoked NMDAR-EPSCs, whole-cell patch-clamp of layer V pyramidal neurons in sham- or endoNF-treated mPFC slices. As to conditions: endoNF-treated mPFC slices; DP1 10 μg/ml; DP5 1 μg/ml and 10 μg/ml. The format is cell-based, mouse. The source says: Each mouse was quickly sacrificed by cervical dislocation. After decapitation, the brain was rapidly removed from the skull and placed in ice-cold artificial cerebrospinal fluid (aCSF) equilibrated with 95% O2/5% CO2, which was composed of the following (in mM): 250 sucrose, 24 NaHCO3, 25 glucose, 2.5 KCl, 1.25 NaH2PO4, 2 CaCl2, and 1.5 MgCl2 (osmolarity 345-350 mOsm/kg, pH 7.4). Using a VT1200S vibratome (Leica, Nussloch, Germany), coronal slices containing the prelimbic and infralimbic cortices (1.9-1.3 mm anterior to bregma) were cut 350 μm or 400 μm thick, for patch clamp and extracellular recordings, respectively, in the same sucrose-containing aCSF. Then, the slices were transferred to a slice holding chamber filled with recording aCSF (osmolarity 300-305 mOsm/kg, pH 7.4) that contained 120 mM NaCl instead of sucrose (Eckhardt et al., 2000) and was continuously gassed with 95% O2/5% CO2.
For endoNF treatment in C57BL/6J mice, slices were first allowed to recover for 20 min at room temperature (22-24° C.) in recording aCSF and were then placed in a 24-well plate to be incubated in 2 ml of aCSF without (sham) or with addition of endoNF (10 μg/ml) at 35° C. for 2 hours. The 24-well plate was installed in a water bath (ED, Julabo, Seelbach, Germany). For field excitatory postsynaptic potential (fEPSP) recordings in knockout and transgenic mice, mPFC slices were incubated in recording aCSF for >2 hours at room temperature before recordings. For patch-clamp recordings in knockout mice, slices were incubated first at 35° C. for 20 min and then at room temperature for >30 min before recordings started. The aCSF was continuously gassed with 95% O2/5% CO2 during all incubation steps and recordings.
For whole-cell patch-clamp recordings, layer V pyramidal neurons were visualized using a SliceScope Pro 6000 equipped with a 40× water-immersion objective and infrared differential interference contrast microscopy (Scientifica, Uckfield, UK). Pyramidal cells were identified by their triangular soma and long apical dendrites, and synaptically evoked excitatory postsynaptic currents (EPSCs) were recorded using patch pipettes (3-5 MQ) fabricated using borosilicate glass capillaries (wall thickness 0.315, length 100, outer diameter 1.5 mm, Hilgenberg) and a DMZ-Zeitz puller (Zeitz Instruments GmbH, Martinsried, Germany). The intracellular pipette solution contained the following (in mM): 140.7 Cs-methane-sulfonate, 5 NaCl, 1 MgCl2, 0.2 EGTA, 10 HEPES, 3 ATP-Mg, 0.3 Na-GTP, and 3.1 QX-314 (osmolarity 295 mOsm/kg, adjusted to pH 7.2 with CsOH). EPSCs were evoked by electrical pulses (0.2 ms) at 0.033 Hz via a glass pipette placed in layer II/III of the mPFC (identically to fEPSPs). Mixed EPSCs showing a fast AMPAR-mediated component and a slow NMDAR-mediated component were recorded at a −60 mV holding potential in whole-cell voltage-clamp mode in normal aCSF. The stimulation intensity was adjusted to evoke mixed EPSCs with amplitudes of approximately 300 pA. The slow NMDAR-mediated component of EPSCs was pharmacologically isolated at −60 mV in modified aCSF containing low Mg^2+ (0.1 mM) and high Ca^2+ (3.2 mM, for adjustment of divalent cation concentrations), the selective antagonist of α-amino-3-hydroxy-5-methyl-4-isoxazolepropionic acid (AMPA)/kainate receptors NBQX (10 μM), and the selective antagonist of γ-aminobutyric acid (GABA)B receptors CGP-55845 (2 μM) (Chen et al., 2003). The washout of Mg^2+ required at least 25 min. Recordings at a holding potential near the resting membrane potential allowed us to obtain stable NMDAR-EPSC recordings from pyramidal cells lasting for 1-1.5 hours. Series resistance (Rs, range 10-25 MΩ) was compensated (20-30%) and monitored continuously. Neurons in which Rs changed by more than 20% throughout the experiment were not included in the analysis. In voltage-clamp mode, membrane potential was not corrected for liquid junction potential. […]
For orientation: Patch clamp records ionic current or voltage across a cell membrane.

Series [2] has as its system C57BL/6J mice with intra-mPFC endoNF injection. Put plainly: Novel object recognition test before and after intra-mPFC endoNF injection. As to conditions: 30 min before encoding; sarcosine 600 mg/kg i.p. (d2); DP12 (d5) and DP1 (d6) 1 mg/kg intranasally. Type of series: in vivo, mouse. As to the method: Guide cannulas were fabricated using stainless steel tubing with outer/inner diameter Ø 0.711/0.483 mm (Science Products, Germany). Dummy cannulas were made from entomological pins, size 2, Ø 0.41 mm (FST, Germany). Chronic implantation of cannulas into the mPFC in mice was performed as described previously for intrahippocampal injections (Kochlamazashvili et al., 2012; Senkov et al., 2015; Senkov et al., 2006).
Acute injection of endoNF in vivo was done under a short isoflurane anesthesia. For intra-mPFC injection, we used a digitally controlled infusion system (UltraMicroPump, UMP3, and Micro4 Controller, WPI, USA) fed with a 10 μl-Hamilton syringe and NanoFil 135 μm (35 GA) beveled needle. The thin (135 μm) part of the needle went into the mouse brain during injection, whereas its thick part (430 μm) fit perfectly in the guide cannula (inside 483 μm). Injections were performed as follows: 1) a mouse was anesthetized with 1-3% isoflurane as during implantation; 2) it was put into the stereotaxic frame; 3) the dummy cannula was gently removed from the left guide cannula; 4) a NanoFil injecting needle was carefully placed inside of the guide cannula and advanced further down until reaching the marker (made with a permanent pen at the needle shank (430 μm) to visualize the point when the needle should reach the surface of the brain coming out of the guide cannula (equal to the length of guide cannula); 5) once the marker was reached, a slow (10 μm increment) step dial was used to deepen the needle into the brain; 6) endoNF (2 μg/μl) or vehicle was injected with the following settings: 250 nl per site as deep as 1.5 and 2.25 mm from the brain surface (total injection volume per hemisphere 500 nl, injection rate of 3 nl/s); 7) after injection was complete (˜5 min), the needle was left in the injection site for another 5 min and then gently removed; 8) the dummy cannula was then put back to its place; 9) the same procedure was performed for the right hemisphere. The whole injection process took approximately 20-25 min under isoflurane anesthesia, and the mice recovered rather quickly, starting to move in approximately 2-3 min after being returned to their home cages. Complete recovery of a mouse after such short anesthesia usually occurs within 3-5 min. After injection, mice were returned to their animal facility. Behavior experiments started on the day after injection at approximately the same time, so that we could perform cognitive tests 24 hours after injection.
A white open field arena (50×50×30 cm) was used in the novel object recognition task. All behavior was video recorded and analyzed automatically by software (ANY-maze, version 4.99, Stoelting Co., Wood Dale, Ill.). […]

For the next series, the system named is 5×FAD mice. The experiment in a line: Recency test (increased difficulty) in 5×FAD mice. Type of series: in vivo, mouse. As to conditions: intranasal, 0.5 mg/kg DP12 or equimolar, 2 hours before test; 90 min intervals. As to the method:
The recency test comprised of two encoding phases followed by a retrieval phase (modified from Nelson et al., 2011). The interval between the encoding phases was 1 h, and the interval between the second encoding phase and the retrieval phase was 10 min, except for experiments in 5×FAD mice when both intervals were 90 min to make the task more difficult. In the first encoding phase, animals were placed into the open field arena and allowed to explore a pair of identical objects for 10 min. Then, a different pair of identical objects was presented in the second encoding phase (10 min total exploration time). During the retrieval phase, two different objects, one object from each encoding phase, were placed into the apparatus and animals were given 10 min to explore them.
Animals were randomly assigned to treatment groups using a randomized block design to counterbalance differences in age. The time of the day when tests were performed for different animals was also counterbalanced between treatment groups using a randomized block design. All measurements and statistical analyses were performed performed blindly, i.e. the tubes containing drugs/vehicle were coded. Exploration was defined as the animal approaching the object at a distance of less than 2 cm. The animal climbing onto the object with both hind- and forelimbs was not considered as exploration. In the same trial, objects were counterbalanced, and between trials, the placements of novel and familiar objects were changed. The objects used in the novel object recognition test were not employed in the recency test. Novelty detection was evaluated by calculating the discrimination ratio as follows: [novel object time−familiar object time]/[novel object time+familiar object time]×100%. In the recency test, the discrimination ratio was calculated as follows: [least recent object time−most recent object time]/[least object time+most recent object time]×100%. Unreliable measurements (about 10%), when animals spent in total ≤10 s near to both objects, were excluded from analysis.
As the recency test was consistently used for analysis of DP12 effects in other mouse models, it was further investigated whether 13- to 14-month-old 5×FAD mice are impaired in this form of memory. In this series of experiments, the intervals between each session during recency test were increased to 90 min to increase the difficulty to recall the temporal order of the two objects shown in the arena (FIG. 12(A)). […] To verify whether DP12 or avDP10-9OAc may improve cognitive function in the 5×FAD model of AD, these compounds or a vehicle (H2O) were intranasally delivered in the same cohort of 5×FAD mice before multiple recency test sessions (separated by 4 day-interval). The numbers of mice in each treatment group during one session were counterbalanced and each mouse received in a random order both drugs and the vehicle. […] In contrast, vehicle-treated 5×FAD mice explored the two objects equally (FIG. 12(C)).

For series [3], the system named is dissociated hippocampal cultures (primary neural cells). The experiment in a line: MTT assay of neural cell viability. Type of series: cell-based, mouse. As to conditions: 30 to 1000 nM, 48 hours, from 10th day in vitro; DP10 effect at 30, 100 and 300 nM. As to the method: Primary hippocampal cells were dissociated from embryonic mice on embryonic day 18. To prepare the primary neural cultures, pregnant C57/BL6J mice were sacrificed by cervical dislocation. Embryos were decapitated, and the hippocampi isolated from brains under sterile conditions and dissected. Enzymatic digestion by 0.25% trypsin/EDTA solution was followed by separation of the cells in serum-containing medium via trituration (10 passes, 1 ml pipette). The primary cells were seeded onto 96-well plates coated with 100 μg/ml poly-lysine and 20 μg/ml laminin. The plating density was 20,000 cells per well. First, 200 μl Dulbecco's modified Eagle's medium (DMEM) was applied per well (supplemented with 1% penicillin-streptomycin and 1% L-glutamine and 2% B27). After incubation for 2 h at 37° C./5% CO2, the medium was exchanged with the pre-warmed Neurobasal medium including 1% penicillin-streptomycin, 1% L-glutamine, and 2% B27. The cells—predominantly neurons and astrocytes—were incubated at 37° C. in 5% CO2 humidified atmosphere for 10 days before administration of reagents.
The assay was performed as described elsewhere with minor modifications (Khalid et al., 2018). Primary neural cells (see above) grown in a 96-well plate were exposed to drugs/vehicles for 48 h at 37° C./5% CO2. After aspiration of culture media, a washing was done with 100 μl phosphate buffered saline (PBS, pH=7.2). Then, PBS was completely removed, and 100 μl phenol red-free pre-warmed Neurobasal media and 50 μl MTT solution (3-(4,5-dimethylthiazol-2-yl)-2,5-diphenyltetrazolium bromide, 5 mg/ml; dissolved in PBS) were added to each well and plates were incubated for 4 h in an incubator. […] DMSO destroyed the cells and released the formazan, which was detected by optical density value at 560 nm, measured using a plate reader. Optical density values for wells containing cells were corrected by subtracting values measured in cell-free wells prepared and treated in the same way as wells containing control cells.
A general note: Tetrazolium assays rely on reduction of a dye to a coloured formazan, in cell work by metabolically active cells.

The values below come from patent publication US20210301038A1, “POLYSIALIC ACID AND DERIVATIVES THEREOF, PHARMACEUTICAL COMPOSITION AND METHOD OF PRODUCING POLYSIALIC ACID” (Medizinische Hochschule Hannover (MHH), priority 2018, published 2021).

For the compound `CC(=O)N[C@H]1[C@H]([C@H](O)[C@H](O)CO)OC(O)(C(=O)O)C[C@@H]1O` (stereo partly drawn) [DP1, N-acetylneuraminic acid], the “inhibition of NMDAR-mediated currents” value in the series on NMDAR-mediated currents is recorded as “do not inhibit”. The “effect on the amplitude of NMDAR-EPSCs” value in series [1] is recorded as “no effect”. The “novel object recognition after intra-mPFC endoNF injection” value in series [2] is reported as “no effect”.
Regarding (α(2→8)Neu5Ac)10 [DP10], in the series on 5×FAD mice, the “exploration of least recent versus most recent object in the retrieval phase” value is on record as “preference for the least recently explored object” and the “object discrimination (discrimination ratio) compared to vehicle” value is on record as “significantly better in object discrimination”. Besides, the “effect on neural cell viability” value in series [3] was “strong potentiating effect”.
